Data from patent US20160052898A1, “NOVEL COMPOUNDS” (BAYER PHARMA AKTIENGESELLSCHAFT, priority 2013, published 2016).
Read-outs that look alike come from different tables or passages of the source.

Assays:
[1] = system: HCT116 FOP control reporter cell line; experiment: HCT116 FOP control vector reporter assay (non-functional TCF elements); assay type: cell-based; conditions: HCT116 FOP control reporter cells, luciferase expression, 36 hours incubation, 50 μM to 15 nM, read-out: HCT116 FOPFlash IC50
Summary of the method: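 Stable HCT116 line carrying the non-functional FOP luciferase construct, 10000 cells/well plated 24 hrs before. Compounds 50 μM to 15 nM (3.16-fold steps) in CAFTY buffer pH 7.4 with 2 mM Ca2+, 36 hours at 37° C; luciferase luminescence read.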

[2] = system: constitutive active colorectal cancer cell (CRC) Wnt pathway; experiment: HCT116 Super TopFlash cellular reporter assay (constitutive active Wnt pathway); assay type: cell-based; conditions: HCT116 TOP reporter cells, luciferase expression, 36 hours incubation, 50 μM to 15 nM
Summary of the method: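 Luciferase luminescence served as the Wnt read-out after 36 h of compound treatment at 37 °C. Compound came from a pre-dilution series (50 μM down to 15 nM, 3.16-fold steps) in CAFTY buffer. Cells were stable HCT116 TOP reporter cells, with matched FOP-vector control cells tested in parallel, seeded a day earlier.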

Row | Compound | IC50 ([1]; Homo sapiens, HCT-116, 36 h) | IC50 ([2]; Homo sapiens, HCT-116, 36 h) | IC50 [1] | IC50 [2]
1 | COc1ccc(NC(=O)c2ccc(-c3ccc(CN)cc3)cc2)cc1NC(=O)CN1CCOCC1 [Example 120, 4′-(aminomethyl)-N-{4-methoxy-3-[(morpholin-4-ylacetyl)amino]phenyl}biphenyl-4-carboxamide] | ≥ 50000 nM | 755 nM |  | 
2 | NC(=O)COc1ccc(C(=O)Nc2ccc(-c3ccccc3)cc2)cc1NC(=O)CN1CCOCC1 [Example 122, 4-(2-amino-2-oxoethoxy)-N-(biphenyl-4-yl)-3-[(morpholin-4-ylacetyl)amino]benzamide] | 15500 nM | 338 nM |  | 
3 | COc1ccc(C(=O)Nc2ccc(-c3cc(F)cc(F)c3)c(F)c2)cc1NC(=O)CN1CCOCC1 [Example 123, 4-methoxy-3-[(morpholin-4-ylacetyl)amino]-N-(2,3′,5′-trifluorobiphenyl-4-yl)benzamide] | ≥ 50000 nM | 400 nM |  | 
4 | O=C(CN1CC2CCC(C1)O2)Nc1cc(C(=O)Nc2ccc(-c3ccccc3)cc2)ccc1OC1CC1 [Example 128, N-(biphenyl-4-yl)-4-(cyclopropyloxy)-3-[(8-oxa-3-azabicyclo[3.2.1]oct-3-ylacetyl)amino]benzamide] | ≥ 50000 nM | 74 nM |  | 
5 | COc1ccc(NC(=O)c2ccc(-c3ccccc3)cc2)cc1NC(=O)C1(NC(=O)OC(C)(C)C)CC1 [Example 129, tert-butyl[1-({5-[(biphenyl-4-ylcarbonyl)amino]-2-methoxyphenyl}carbamoyl)cyclopropyl]carbamate] | 11000 nM | 195 nM |  | 
6 | COc1c(F)cc(C(=O)Nc2ccc(-c3ccccc3)cc2)cc1NC(=O)CN1CCOCC1 [Example 134, N-(biphenyl-4-yl)-3-fluoro-4-methoxy-5-[(morpholin-4-ylacetyl)amino]benzamide] | ≥ 50000 nM | 398 nM |  | 
7 | NC(C(=O)Nc1cc(NC(=O)c2ccc(-c3ccccc3)cc2)ccc1OC(F)(F)F)C(F)(F)F (centres unmarked) [Example 135, N-{3-[(333-trifluoroalanyl)amino]-4-[trifluoromethoxy)phenyl) biphenyl-4-carboxamide] | ≥ 50000 nM | 592 nM |  | 
8 | O=C(CNCCO)Nc1cc(NC(=O)c2ccc(-c3ccccc3)cc2)ccc1OC(F)(F)F [Example 140, N-[3-{[N-(2-hydroxyethyl)glycyl]amino}-4-(trifluoromethoxy)phenyl] biphenyl-4-carboxamide] | 25000 nM | 1700 nM |  | 
9 | COc1ccc(NC(=O)c2ccc(-c3ccccc3)cc2)cc1NC(=O)Cc1cccc(F)c1 [Example 142, N-(3-{[(3-fluorophenyl)acetyl]amino}-4-methoxyphenyl)biphenyl-4-carboxamide] | ≥ 50000 nM | 2850 nM |  | 
10 | COc1cccc(CC(=O)Nc2cc(NC(=O)c3ccc(-c4ccccc4)cc3)ccc2OC)c1 [Example 143, N-(4-methoxy-3-{[(3-methoxyphenyl}acetyl]amino}phenyl)biphenyl-4-carboxamide] | ≥ 50000 nM | 3300 nM |  | 
11 | COc1ccc(CC(=O)Nc2cc(NC(=O)c3ccc(-c4ccccc4)cc3)ccc2OC)cc1 [Example 144, N-(4-methoxy-3-{[(4-methoxyphenyl)acetyl]amino}phenyl)biphenyl-4-carboxamide] | ≥ 50000 nM | 3850 nM |  | 
12 | COc1ccc(C(=O)Nc2ccc(-c3ccccc3)cc2)cc1NC(=O)[C@@H](C)N1CCOCC1 [Example 153, N-(biphenyl-4-yl)-4-methoxy-3-{[(2R)-2-(morpholin-4-yl)propanoyl]amino} benzamide] | ≥ 50000 nM | 44 nM |  | 
13 | CC(C)NC(=O)c1ccc(C(=O)Nc2ccc(-c3ccccc3)cc2)cc1NC(=O)CN1CCOCC1 [Example 155, N^4-(biphenyl-4-yl)-2-[(morpholin-4-ylacetyl)amino]-N^1-(propan-2-yl)benzene-1,4-dicarboxamide] | ≥ 50000 nM | 49.8 nM |  | 

The next lines start with the values.

Row | IC50 ([1]; Homo sapiens, HCT-116, 36 h) | IC50 ([2]; Homo sapiens, HCT-116, 36 h) | IC50 [1] | IC50 [2] | Compound
14 | ≥ 50000 nM | 237 nM |  |  | O=C(CN1CCOCC1)Nc1cc(C(=O)Nc2ccc(-c3ccccc3)cc2)ccc1OCCCO [Example 121, N-(biphenyl-4-yl)-4-(3-hydroxypropoxy)-3-[(morpholin-4-ylacetyl)amino]benzamide]
15 | 8900 nM | 105 nM |  |  | CN1CCN(CC(=O)Nc2cc(C(=O)Nc3ccc(-c4ccccc4)cc3)ccc2CS(C)(=O)=O)CC1 [Example 125, N-(biphenyl-4-yl)-3-{[(4-methylpiperazin-1-yl)acetyl]amino}-4-[(methylsulfonyl)methyl]benzamide]
16 | ≥ 50000 nM | 222 nM |  |  | CC(=O)NCCCOc1ccc(C(=O)Nc2ccc(-c3ccccc3)cc2)cc1NC(=O)CN1CCOCC1 [Example 126, 4-(3-acetamidopropoxy)-N-(biphenyl-4-yl)-3-[(morpholin-4-ylacetyl)amino]benzamide]
17 | 28000 nM | 248 nM |  |  | COCCNCC(=O)Nc1cc(NC(=O)c2ccc(-c3ccccc3)cc2)ccc1OC(F)(F)F [Example 130, N-[3-{[N-(2-methoxyethyl)glycyl]amino} -4-(trifluoromethoxy)phenyl] biphenyl-4-carboxamide]
18 |  |  | 30000 nM | 362 nM | COc1ccc(C(=O)Nc2ccc(-c3ccccc3)cc2)cc1NC(=O)C1(N2CCN(C)CC2)CC1 [Example 133, N-(biphenyl-4-yl)-4-methoxy-3-({[1-(4-methylpiperazin-1-yl)cyclopropyl]carbonyl}amino)benzamide]
19 | 38500 nM | 750 nM |  |  | COc1c(Cl)cc(C(=O)Nc2ccc(-c3ccccc3)cc2)cc1NC(=O)CN1CCOCC1 [Example 136, N-(biphenyl-4-yl)-3-chloro-4-methoxy-5-[(morpholin-4-ylacetyl]amino]benzamide]
20 | 33000 nM | 925 nM |  |  | COc1ccc(C(=O)Nc2ccc(-c3ccccc3)cc2)cc1NC(=O)[C@@H](C(C)C)N1CCOCC1 [Example 137, N-(biphenyl-4-yl)-4-methoxy-3-{[(2R)-3-methyl-2-(morpholin-4-yl)butanoyl]amino} benzamide]
21 | ≥ 50000 nM | 1200 nM |  |  | COc1ccc(NC(=O)c2ccc(-c3ccccc3)cc2)cc1NC(=O)Cc1ccc(F)cc1 [Example 138, N-(3-{[(4-fluorophenyl)acetyl]amino}-4-methoxyphenyl)biphenyl-4-carboxamide]
22 | ≥ 50000 nM | 1430 nM |  |  | CC(CN1CCOCC1)C(=O)Nc1cc(C(=O)Nc2ccc(-c3ccccc3)cc2)ccc1C(F)(F)F (centres unmarked) [Example 139, N-(biphenyl-4-yl)-3-{[2-methyl-3-(morpholin-4-yl)propanoyl]amino}-4-(trifluoromethyl)benzamide]
23 | ≥ 50000 nM | 2500 nM |  |  | COc1ccc(NC(=O)c2ccc(-c3ccccc3)cc2)cc1NC(=O)CCN1CCOCC1 [Example 141, N-(4-methoxy-3-{[3-(morpholin-4-yl)propanoyl]amino}phenyl) biphenyl-4-carboxamide]
24 | ≥ 50000 nM | 4800 nM |  |  | COc1ccc(NC(=O)c2ccc(-c3ccccc3)cc2)cc1NC(=O)CC1CCCCC1 [Example 145, N-{3-((cyclohexylacetyl)amino]-4-methoxyphenyl}biphenyl-4-carboxamide]
25 | ≥ 50000 nM | 10.2 nM |  |  | COC(=O)c1ccc(C(=O)Nc2ccc(-c3ccccc3)cc2)cc1NC(=O)C1(N2CCOCC2)CC1 [Example 147, methyl 4-(biphenyl-4-ylcarbamoyl)-2-({[1-(morpholin-4-yl)cyclopropyl]carbonyl}amino)benzoate]
26 | ≥ 50000 nM | 12.2 nM |  |  | O=C(Nc1ccc(OC(F)(F)F)c(NC(=O)C2(N3CCOCC3)CC2)c1)c1ccc(-c2ccccc2)cc1 [Example 148, N-[3-({[1-(morpholin-4-yl)cyclopropyl]carbonyl}amino)-4-(trifluoromethoxy)phenyl] biphenyl-4-carboxamide]
27 | 15000 nM | 13.3 nM |  |  | COCc1ccc(C(=O)Nc2ccc(-c3ccccc3)cc2)cc1NC(=O)C1(N2CCN(C3CC3)CC2)CC1 [Example 149, N-(biphenyl-4-yl)-3-({[1-(4-cyclopropylpiperazin-1-yl)cyclopropyl]carbonyl}amino)-4-(methoxymethyl)benzamide]
28 | ≥ 50000 nM | 26.2 nM |  |  | COc1ccc(NC(=O)c2ccc(-c3ccccc3)cc2)cc1NC(=O)C1(N2CCOCC2)CC1 [Example 150, N-[4-methoxy-3-({[1-(morpholin-4-yl)cyclopropyl]carbonyl}amino)phenyl]biphenyl-4-carboxamide]
29 | ≥ 50000 nM | 28.2 nM |  |  | O=C(Nc1ccc(-c2ccccc2)cc1)c1ccc(F)c(NC(=O)C2(N3CCOCC3)CC2)c1 [Example 151, N-(biphenyl-4-yl)-4-fluoro-3-({[1-(morpholin-4-yl)cyclopropyl]carbonyl}amino)benzamide]
30 | 29000 nM | 33.8 nM |  |  | O=C(Nc1ccc(-c2ccccc2)cc1)c1ccc(Br)c(NC(=O)C2(N3CCOCC3)CC2)c1 [Example 152, N-(biphenyl-4-yl)-4-bromo-3-({[1-(morpholin-4-yl)cyclopropyl]carbonyl}amino)benzamide]
31 | 42500 nM | 47.6 nM |  |  | COCc1ccc(C(=O)Nc2ccc(-c3ccccc3)cc2)cc1NC(=O)CN1CC2CCC(C1)O2 [Example 154, N-(biphenyl-4-yl)-4-(methoxymethyl)-3-[(8-oxa-3-azabicyclo[3.2.1]oct-3-ylacetyl)amino]benzamide]
